We go through 28 compounds from US11746100B2 (GLOBAL BLOOD THERAPEUTICS, INC., priority 2020, dated 2023).

The experiment addresses T1, human ferroportin (Homo sapiens, UniProt Q9NP59).
T1 construct: luciferase reporter (read with the Nano-Glo Luciferase Assay System); expressed in transfected cells; host or cells: CHO cells, stably transfected, expression induced with doxycycline
T1 sequence (Q9NP59 1-571): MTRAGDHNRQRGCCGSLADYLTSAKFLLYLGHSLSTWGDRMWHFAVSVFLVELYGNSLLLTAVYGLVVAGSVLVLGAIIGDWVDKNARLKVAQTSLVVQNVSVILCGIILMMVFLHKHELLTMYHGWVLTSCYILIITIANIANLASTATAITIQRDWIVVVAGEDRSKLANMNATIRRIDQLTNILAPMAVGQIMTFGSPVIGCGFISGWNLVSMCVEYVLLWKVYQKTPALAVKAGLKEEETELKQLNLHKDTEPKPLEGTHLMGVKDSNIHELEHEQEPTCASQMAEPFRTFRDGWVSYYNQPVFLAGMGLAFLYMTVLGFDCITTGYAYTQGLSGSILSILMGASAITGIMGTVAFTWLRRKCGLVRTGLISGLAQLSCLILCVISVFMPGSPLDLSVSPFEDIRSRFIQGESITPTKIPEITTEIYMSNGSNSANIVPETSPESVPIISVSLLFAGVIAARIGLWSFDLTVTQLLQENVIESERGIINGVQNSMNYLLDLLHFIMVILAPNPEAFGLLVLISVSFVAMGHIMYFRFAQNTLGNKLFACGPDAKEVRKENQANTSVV
In words: Biological in-vitro ferroportin internalization assay (luciferase reporter). It counts as cell-based. The conditions noted are these: average pEC50; stably-transfected CHO cell line expressing human ferroportin tagged to a luciferase reporter; 6 h incubation with test compound. Summed up:
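Stably transfected CHO cells expressing luciferase-tagged human ferroportin, plated 24 h with ferric ammonium citrate and induced with doxycycline for 24 h. Compounds incubated 6 h, then luciferase activity measured by Nano-Glo; average pEC50 reported.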
On the technique in general: A reporter such as luciferase makes a cellular process visible.
In the case of `CN(CC(=O)NC(C)(C)C)c1nc(-c2ccc(F)cn2)nc2c1CCC2` [Compound 299, N-tert-butyl-2-{[2-(5-fluoropyridin-2-yl)-5H,6H,7H-cyclopenta[d]pyrimidin-4-yl](methyl)amino}acetamide], the pEC50 (as a rule, −log10 of the EC50, conventionally taken in molar units) was 6.1.
As to `CN(CC(=O)NC(C)(C)C)c1nc(-c2ncccc2O)nc2c1CCC2` [Compound 181, N-tert-butyl-2-{[2-(3-hydroxypyridin-2-yl)-5H,6H,7H-cyclopenta[d]pyrimidin-4-yl](methyl)amino}acetamide], the pEC50 was determined as 6.5.
With `COc1cccc(NC(=O)[C@@H](C)N(C)c2nc(-c3cn(C)cn3)nc3c2CCC3)c1` [Compound 278, (2R)—N-(3-methoxyphenyl)-2-{methyl[2-(1-methyl-1H-imidazol-4-yl)-5H,6H,7H-cyclopenta[d]pyrimidin-4-yl]amino}propanamide] the figure was 7.8; with `Cc1cccc(-c2nc3c(c(N(C)CC(=O)NC(C)(C)C)n2)CCC3)n1` [Compound 59, -tert-butyl-2-{methyl[2-(6-methylpyridin-2-yl)-5H,6H,7H-cyclopenta[d]pyrimidin-4-yl]amino}acetamide], 6.8; with `COc1ccc(NC(=O)CN(C)c2nc(-c3cc4cn[nH]c4cn3)nc3c2CCC3)cn1` [Compound 219, N-(6-methoxypyridin-3-yl)-2-[methyl(2-{1H-pyrazolo[3,4-c]pyridin-5-yl}-5H,6H,7H-cyclopenta[d]pyrimidin-4-yl)amino]acetamide], 7.1.
In the case of `Cc1ccnc(-c2nc3c(c(N(C)CC(=O)NC4(C)CCOC4)n2)CCC3)c1` (stereo not shown) [Compound 65, 2-{methyl[2-(4-methylpyridin-2-yl)-5H,6H,7H-cyclopenta[d]pyrimidin-4-yl]amino}-N-(3-methyloxolan-3-yl)acetamide], the pEC50 is 7.6.
`CN(CC(=O)NC(C)(C)C)c1nc(-c2cc(O[C@@H]3CCN(CC(F)F)C3)ccn2)nc2c1CCC2` [Compound 491, N-tert-butyl-2-{[2-(4-{[(3R)-1-(2,2-difluoroethyl)pyrrolidin-3-yl]oxy}pyridin-2-yl)-5H,6H,7H-cyclopenta[d]pyrimidin-4-yl](methyl)amino}acetamide] returned a pEC50 of 8.2.
For the compound `CN1CCC[C@H](Oc2ccnc(-c3nc4c(c(N(C)CC(=O)NC(C)(C)C)n3)CCC4)c2)C1` [Compound 490, N-tert-butyl-2-{methyl[2-(4-{[(3S)-1-methylpiperidin-3-yl]oxy}pyridin-2-yl)-5H,6H,7H-cyclopenta[d]pyrimidin-4-yl]amino}acetamide], the negative-log EC50 (pEC50) is on record as 7.9.
With `CN(C)CCOc1ccnc(-c2cc(N(C)CC(=O)NC(C)(C)C)c3c(n2)CCC3)c1` [Compound 495, N-tert-butyl-2-[(2-{4-[2-(dimethylamino)ethoxy]pyridin-2-yl}-5H,6H,7H-cyclopenta[b]pyridin-4-yl)(methyl)amino]acetamide], the pEC50 was 7.4.
With `C[C@H](C(=O)NC(C)(C)C)N(C)c1nc(-c2cc(OCCN(C)C)ccn2)nc2c1CCC2` [Compound 408, (2R)—N-tert-butyl-2-[(2-{4-[2-(dimethylamino)ethoxy]pyridin-2-yl}-5H,6H,7H-cyclopenta[d]pyrimidin-4-yl)(methyl)amino]propanamide] the figure was 8.5; with `CN1CCCN(c2nc(-c3ccccn3)nc3c2CCC3)CC1` [Compound 85, 1-methyl-4-[2-(pyridin-2-yl)-5H,6H,7H-cyclopenta[d]pyrimidin-4-yl]-1,4-diazepane], 5.5; with `CNCCOc1ccnc(-c2nc3c(c(NCC(=O)NC(C)(C)C)n2)CCC3)c1` [Compound 485, N-tert-butyl-2-[(2-{4-[2-(methylamino)ethoxy]pyridin-2-yl}-5H,6H,7H-cyclopenta[d]pyrimidin-4-yl)amino]acetamide], 7.1.
Regarding `CN(CC(=O)NC(C)(C)C)c1nc(-c2cc3occc3cn2)nc2c1CCC2` [Compound 341, N-tert-butyl-2-[(2-{furo[3,2-c]pyridin-6-yl}-5H,6H,7H-cyclopenta[d]pyrimidin-4-yl)(methyl)amino]acetamide], the pEC50 is recorded as 7.6.
The compound `Cc1cccnc1-c1nc2c(c(N(C)CC(=O)NC(C)(C)C)n1)CCC2` [Compound 103, N-tert-butyl-2-{methyl[2-(3-methylpyridin-2-yl)-5H,6H,7H-cyclopenta[d]pyrimidin-4-yl]amino}acetamide] returned a pEC50 of 6.4.
With `CN(CC(=O)NC1CCOCC1)c1nc(-c2ccccn2)nc2c1CCC2` [Compound 79, 2-{methyl[2-(pyridin-2-yl)-5H,6H,7H-cyclopenta[d]pyrimidin-4-yl]amino}-N-(oxan-4-yl)acetamide] the figure was 6.5; with `CN(CC(=O)Nc1cncc(F)c1)c1nc(-c2cc3ccccc3cn2)nc2c1CCC2` [Compound 240, N-(5-fluoropyridin-3-yl)-2-{[2-(isoquinolin-3-yl)-5H,6H,7H-cyclopenta[d]pyrimidin-4-yl](methyl)amino}acetamide], 7.1; with `Cc1ccc(NC(=O)CN(C)c2nc(-c3cc4c(CO)cccc4cn3)nc3c2CCC3)cn1` [Compound 270, 2-({2-[5-(hydroxymethyl)isoquinolin-3-yl]-5H,6H,7H-cyclopenta[d]pyrimidin-4-yl}(methyl)amino)-N-(6-methylpyridin-3-yl)acetamide], 7.5.
With `CCNC(=O)CN(C)c1nc(-c2cc(OCC3(O)CC3)ccn2)nc2c1CCC2` [Compound 441, N-ethyl-2-[(2-{4-[(1-hydroxycyclopropyl)methoxy]pyridin-2-yl}-5H,6H,7H-cyclopenta[d]pyrimidin-4-yl)(methyl)amino]acetamide] the figure was 7.5; with `CN(CC(=O)Nc1ccc(F)nc1)c1nc(-c2cc3cnn(C4CCCCO4)c3cn2)nc2c1CCC2` (stereo not shown) [Compound 264, N-(6-fluoropyridin-3-yl)-2-[methyl({2-[1-(oxan-2-yl)-1H-pyrazolo[3,4-c]pyridin-5-yl]-5H,6H,7H-cyclopenta[d]pyrimidin-4-yl})amino]acetamide], 6.5; with `C[C@H]1OC[C@@H]1Oc1ccnc(-c2nc3c(c(N(C)CC(=O)NC(C)(C)C)n2)CCC3)c1` (racemic) [Compound 333, N-tert-butyl-2-{methyl[2-(4-{[(2R,3S)-2-methyloxetan-3-yl]oxy}pyridin-2-yl)-5H,6H,7H-cyclopenta[d]pyrimidin-4-yl]amino}acetamide], 7.8.
Compound `CN(CC(=O)Nc1cccc(F)c1)c1nc(-c2cc(O[C@H]3C[C@@H](O)C3)ccn2)nc2c1CCC2` [Compound 345, N-(3-fluorophenyl)-2-[methyl(2-{4-[(1s,3s)-3-hydroxycyclobutoxy]pyridin-2-yl}-5H,6H,7H-cyclopenta[d]pyrimidin-4-yl)amino]acetamide] gave a pEC50 of 6.7.
Turning to `CN(CC(=O)Nc1ccn(C)n1)c1nc(-c2cc3ccccc3cn2)nc2c1CCC2` [Compound 237, 2-{[2-(isoquinolin-3-yl)-5H,6H,7H-cyclopenta[d]pyrimidin-4-yl](methyl)amino}-N-(1-methyl-1H-pyrazol-3-yl)acetamide], the pEC50 amounted to 7.1.
In the case of `COc1ccc(NC(=O)CN(C)c2nc(-c3cc(OC(F)F)ccn3)nc3c2CCC3)nc1` [Compound 217, 2-({2-[4-(difluoromethoxy)pyridin-2-yl]-5H,6H,7H-cyclopenta[d]pyrimidin-4-yl}(methyl)amino)-N-(5-methoxypyridin-2-yl)acetamide], the pEC50 was 6.9.
For `CN(CC(=O)N1CCCCC1)c1nc(-c2cc(O[C@@H]3CCOC3)ccn2)nc2c1CCC2` [Compound 342, 2-[methyl(2-{4-[(3R)-oxolan-3-yoxy]pyridin-2-yl}-5H,6H,7H-cyclopenta[d]pyrimidin-4-yl)amino]-1-(piperidin-1-yl)ethan-1-one], the pEC50 is recorded as 7.6.
As to `CN(CC(=O)NC(C)(C)C)c1nc(-c2cc(OCCS(C)(=O)=O)ccn2)nc2c1CCC2` [Compound 507, N-tert-butyl-2-({2-[4-(2-methanesulfonylethoxy)pyridin-2-yl]-5H,6H,7H-cyclopenta[d]pyrimidin-4-yl}(methyl)amino)acetamide], the pEC50 is 7.9.
The compound `C[C@H](C(=O)NC(C)(C)C)N(C)c1nc(-c2ccccn2)nc2c1CCC2` [Compound 51, (2R)—N-tert-butyl-2-{methyl[2-(pyridin-2-yl)-5H,6H,7H-cyclopenta[d]pyrimidin-4-yl]amino}propanamide] came in with a pEC50 of 7.5.
`COc1ccc(N2CCN(c3nc(-c4ccccn4)nc4c3CCC4)CCC2=O)cc1` [Compound 203, 4-(4-methoxyphenyl)-1-[2-(pyridin-2-yl)-5H,6H,7H-cyclopenta[d]pyrimidin-4-yl]-1,4-diazepan-5-one]: the pEC50 was found to be 6.3.
`C[C@@H](C(=O)NC(C)(C)C)N(C)c1nc(-c2ccccn2)nc2c1CCC2` [Compound 52, (2S)—N-tert-butyl-2-{methyl[2-(pyridin-2-yl)-5H,6H,7H-cyclopenta[d]pyrimidin-4-yl]amino}propanamide] showed a pEC50 of 6.8.
